Data: EP0500785B1, “A HUMAN T CELL REACTIVE FELINE PROTEIN (TRFP) ISOLATED FROM HOUSE DUST AND USES THEREFOR” (IMMULOGIC PHARMACEUTICAL CORPORATION, priority 1989, dated 2002)

Tests used:
Format in all cases: cell-based, human
[1] = system: TRFP primed T cell cultures; assay: T cell proliferation assay (tritiated thymidine incorporation) of TRFP-primed T cells restimulated with allergens or peptides; settings: for T cell stimulatory activity: summarising Tables 2 and 3
Protocol: Peripheral blood mononuclear cells (PBMC) were purified from 60 ml of heparinized blood from cat allergic patients. PBMC were subsequently treated as described below, although in individual cases, the length of time of cultivation with IL-2 and/or IL-4 and the specific peptides used for stimulation varied.
10 ml of PBMC from patient 131 at 10^6/ml were cultured at 37°C for 7 days in the presence of 5 micrograms purified TRFP/ml RPMI-1640 supplemented with 5% pooled human AB serum. Viable cells were purified by Ficoll-Hypaque centrifugation and cultured for three weeks at 5 units recombinant human IL-2/ml and 5 units recombinant human IL-4/ml. The resting T cells were then restimulated (secondary) with 5 micrograms TRFP at 2 x 10^5/ml in the presence of irradiated (3500 Rads) autologous PBMC at a concentration of 5 x 10^5/ml for three days, purified by Ficoll-Hypaque centrifugation and grown in 5 units IL-2 and 5 units IL-4/ml for two weeks. For assay, 2 x 10^4 resting secondary T cells were restimulated (tertiary) in the presence of 5 x 10^4 irradiated (3500 Rads) autologous PBMC or 2 x 10^4 transformed B cells (20,000 Rads) with various concentrations of allergens or their fragments in a volume of 200 microliters in a 96-well round bottom assay plates for 3 days. Each well then received 1 microCurie tritiated (methyl) thymidine for 16 hours. The counts incorporated were collected onto glass fiber filters and processed for liquid scintillation counting.
Antigens used: T cell reactive feline protein (TRFP), Hollister-Stier cat epithelium skin test reagent (CST), IPC ragweed pollen extract (pollen), and synthetic peptides derived from the TRFP protein sequence (See Figures 6 and 7). Significant T cell proliferation is generally regarded as greater than 2.5 times the media control (T cells and antigen presenting cells alone).
Alternatively, PBMC were treated as follows: the primary stimulated cells were cultured in IL-2/IL-4 for two weeks. The resting T cells derived from this culture were tested in a secondary assay with some, but not all, of the above allergens. […] This type of epitope analysis has allowed the definition of T cell epitopes present in TRFP.

[2] = system: Patient 155 TRFP secondary primed T cells; assay: Induction of T cell anergy/tolerance in vitro, followed by proliferation assay on antigenic challenge
Protocol: The T cell cultures were exposed to 5µg/ml TRFP on day 0 and 5µg/ml, 10µg/ml, 10µg/ml and 20µg/ml thereafter. The peptide treated cultures were exposed to 1µg/ml peptide on day 0 and 1µg/ml, 1µg/ml, 2µg/ml and 5µg/ml thereafter. In addition, 0.5ml of fresh media was replaced on day 2. The cells were then washed and set up for a proliferation assay with 2x10^4 T cells and 2x10^4 irradiated (2500 Rad) autologous EBV and various doses of antigen. T cell proliferation was measured as incorporation of tritiated thymidine at day 9. […]

[3] = system: Peripheral blood mononuclear cells (PBMC); assay: Cytokine profiles (IL-2, IFN-γ, IL-4 cDNA) by PCR in a primary 36 hour PBMC culture; set-up: key to STIMULATION INDEX IL-2 / STIMULATION INDEX IFN-γ / STIMULATION INDEX IL-4: fold over medium control; undetectable control set to 1.00; settings: Patient 409 primary 36 hour culture; for STIMULATION INDEX IL-2 / STIMULATION INDEX IFN-γ / STIMULATION INDEX IL-4: 20 micrograms TRFP/ml or 50 micrograms peptide/ml; for STIMULATION INDEX IL-2: medium not detectable, lowest measurable response set at 1.00; for STIMULATION INDEX IFN-γ / STIMULATION INDEX IL-4: relative to medium control; for RATIO IFN/IL-4 / RATIO IL-2/IL-4: ratio of stimulation indices
Protocol: Peripheral blood mononuclear cells (PBMC) were purified from cat-allergic patients as described in Example 5. Five x 10^6 PBMC were cultured at 2 x 10^6/ml for 36 hours in the presence of medium only, 20 micrograms purified TRFP/ml or 50 micrograms peptide/ml. The cells were then washed two times with phosphate buffered saline (PBS, pH 7.2) and lysed with 2 ml […] guanidinium isothiocyanate, 0.5% Sarkosyl, 5 mM sodium citrate, 0.1 M 2-mercaptoethanol, pH 7.0. The lysate was then forced through a 26 gauge needle to shear genomic DNA, and was layered onto a 2 ml cushion of 5.7 M CsCl, 0.01 M EDTA, pH 7.5 in diethylpyrocarbonate (DEPC)-treated water. The lysate was centrifuged at 35,000 RPM in a Beckman SW41 rotor for 18 hours at 20°C. The RNA pellet was resuspended in 0.4 ml TE (10 mM Tris, 1 mM EDTA) pH 7.5, 0.1% SDS, and then extracted three times with 0.5 ml phenol/0.2 ml chloroform. The RNA was then precipitated on dry ice with 2.5 volumes ice-cold ethanol, 1/10 volume 3 M sodium acetate, pH 5.2 in DEPC-treated water, rinsed once with 70% ethanol in DEPC-treated water, and dried. The RNA pellet was resuspended in 2 microliters TE, pH 7.5 in DEPC-treated water.
Total cellular RNA was converted to cDNA using the Superscript kit (BRL, Bethesda, MD). Two microliters of RNA were added to one microliter oligo (dT)12-18 (500 micrograms/ml) and 9 microliters water. The sample was heated to 70°C for 10 minutes and ice quenched. Four microliters 5X buffer were added to the sample along with 2 microliters 0.1 M DTT and 1 microliter dNTP mix (10 mM each, dATP, dCTP, dGTP, dTTP). One microliter reverse transcriptase (200U) was added and the reaction was carried out for one hour at 42°C. The reaction was terminated by incubation of the sample at 90°C for five minutes and stored at -80°C.
Ten-fold serial dilutions of T cell cDNA in 10 mM TRIS, pH 7.5 were amplified using the standard kit and protocol recommended by Perkin Elmer-Cetus (Redwood City, CA). Each sample received 26.65 microliters water, 5 microliters 10X PCR buffer, 8 microliters of dNTP mix (1.25 mM each of dATP, dCTP, dGTP and dTTP), 0.1 microliter alpha ^32P-dCTP (3000 Ci/mmol), 0.25 microliter AmpliTaq, 5 microliters cDNA and 5 microliters cytokine-specific 5' and 3' primers (20 micromolar). The primers used for most cytokines and the beta-actin control were purchased from Clontech (Redwood City, CA). The human IL-4 primers were purchased from Research Genetics (Huntsville, AL) and had the following sequences: [formula]
The reactions were carried out after overlaying each sample with one drop of mineral oil, with the following program in a programmable thermal cycler (MJ Research, Cambridge, MA).
The PCR products were extracted once with 25 microliters chloroform and 25 microliters of each sample were then electrophoresed on an 8% polyacrylamide gel at 250 V. The gel was dried and exposed to pre-flashed x-ray film. Several exposures of each gel were then scanned using a Shimadzu flying spot laser densitometer. Values on the linear portion of the titrations were then compared to the medium control values to obtain a stimulation index for each sample. Primers for beta-actin were included as a control for general cDNA levels in each sample. Where the medium control values are not detectable, the lowest measurable response was set at 1.00. In other experiments, levels of cytokine cDNA can be compared directly with previously amplified cytokine-specific cDNAs as standards. Thus, absolute levels of particular cytokine cDNAs can be compared from one sample to another and from one experiment to another. In this experiment, IL-2, IL-4 and IFN-gamma levels were measured. […] This analysis will be expanded to studies of other cytokines involved in the generation of allergic responses, such as IL-5, IL-8, IL-9, TGF-beta. Samples of cDNA from each treatment can also be saved for later analysis once additional cytokines are identified and sequenced. […]

[4] = Chain #1 TRFP peptides, average cpm with antigen divided by cpm of T cells and antigen presenting cells alone, responding patients, SI ≥ 2.5 positive
[5] = Chain #1 TRFP peptides, cat allergic patients, average SI of all responding patients multiplied by percent of patients with a positive response
[6] = Chain #2 TRFP peptides, cat allergic patients, average SI of responding patients multiplied by percent positive
[7] = Chain #2 TRFP peptides, cat allergic patients, average of responding patients

Row | Substance | SI [1, 4] | PI [1, 5] | T cell stimulatory activity ([1]; result in words) | T cell proliferation (cpm) following Antigenic challenge: Fel 8-3 ([2]; label = tolerance treatment over 5 days, challenge with Fel 8-3) | T cell proliferation (cpm) following Antigenic challenge: Ragweed Peptide ([2]; label = tolerance treatment over 5 days, challenge with Ragweed Peptide) | T cell proliferation (cpm) following Antigenic challenge: TRFP ([2]; label = tolerance treatment over 5 days, challenge with TRFP) | T cell proliferation (cpm) following Antigenic challenge: - ([2]; label = tolerance treatment over 5 days, no challenge antigen) | T cell proliferation (cpm) following Antigenic challenge ([2]; no tolerance treatment (-), label = challenge antigen) | secondary T cell response of peripheral blood lymphocytes ([1]; patient 131, Figure 9, result in words) | STIMULATION INDEX IL-2 [3] | STIMULATION INDEX IFN-γ [3] | STIMULATION INDEX IL-4 [3] | RATIO IFN/IL-4 [3] | RATIO IL-2/IL-4 [3] | PI [1, 6] | SI [1, 7]
1 | Fel 8-3: TRFP chain 1 peptide, amino acids 7 - 33 (KRDVDLFLTGTPDEYVEQVAQYKALPV; UniProt P30438 29-55, looked up, fragment) | 16.9 | 1437 | powerful activity | 3,850 cpm | 5,130 cpm | 12,320 cpm | 1,270 cpm | 58,150 cpm |  |  |  |  |  |  |  | 
2 | Fel 8: TRFP chain 1 peptide, amino acids 1 - 30 (EICPAVKRDVDLFLTGTPDEYVEQVAQYKA; UniProt P30438 23-52, looked up, fragment) | 18.1 | 1393 | most dominant T-cell epitopes |  |  |  |  |  | respond | 1.0 | 1.8 | 0.3 | 6.0 | 3.3 |  | 
3 | Fel 14: TRFP chain 1 peptide, amino acids 18 - 43 (PDEYVEQVAQYKALPVVLENARILKN; UniProt P30438 40-65, looked up, fragment) | 13.7 | 1054 | powerful activity |  |  |  |  |  |  | 106.9 | 75.0 | 1.9 | 39.5 | 56.3 |  | 
4 | Fel 17: TRFP chain 2 peptide, amino acids 12 - 33 (DVFFAVANGNELLLDLSLTKVN; UniProt P30440 29-50, looked up, fragment) |  |  |  |  |  |  |  |  |  | 315.1 | 82.4 | 7.5 | 11.0 | 42.0 | 421 | 6.1
5 | Fel 20-1: TRFP chain 2 peptide, amino acids 34 - 59 (ATEPERTAMKKIQDCYVENGLISRVL; UniProt P30440 51-76, looked up, fragment) |  |  |  |  |  |  |  |  |  |  | 12.0 | 4.6 | 2.6 |  | 395 | 5.9
6 | Fel 25: TRFP chain 2 peptide, amino acids 49 - 68 (YVENGLISRVLDGLVMTTIS; UniProt P30440 66-85, looked up, fragment) |  |  |  |  |  |  |  |  |  | 2.9 | 12.7 | 2.5 | 5.1 | 1.2 | 350 | 7.6
7 | Fel 28: TRFP chain 2 peptide, amino acids 60 - 82 (DGLVMTTISSSKDCMGEAVQNTV; UniProt P30440 77-99, looked up, fragment) |  |  | weakest T cell epitope containing region of TRFP |  |  |  |  |  |  |  | 3.8 | 0.5 | 7.6 |  | 94 | 3.6
8 | Fel 29: TRFP chain 2 peptide, amino acids 74 - 92 (MGEAVQNTVEDLKLNTLGR; UniProt P30440 91-109, looked up, fragment) |  |  |  |  |  |  |  |  |  | 1.2 | 3.0 | 1.1 | 2.7 | 1.1 | 259 | 5.5
